The assay relates to L1210 leukemia ip in BDF1 mice, survival T/C. Kind of assay: NCI In Vivo Anticancer Drug Screen. Data for tumor model L1210 Leukemia (intraperitoneal) in B6D2F1 (BDF1) mice. The note with it: endpoint: mean survival time, higher = longer survival. The method in brief:
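Antitumor effect is assessed in tumor-bearing animals. Survival in the compound arm is compared with a vehicle-dosed control arm and expressed as their quotient.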

[1] abbreviates: dose: 100.0 mg/kg/injection, schedule: Q01DX001 (ip), vehicle: saline with Tween-80.
Where [2] appears, read: dose: 200.0 mg/kg/injection, schedule: Q01DX001 (ip), vehicle: saline with Tween-80.
The mark [3] stands for this setting: dose: 400.0 mg/kg/injection, schedule: Q01DX001 (ip), vehicle: saline with Tween-80.
Setting [4] is: dose: 100.0 mg/kg/injection, schedule: Q04DX003 (ip), vehicle: Klucel (hydroxypropylcellulose) (HPC).
Setting [5] is: dose: 50.0 mg/kg/injection, schedule: Q01DX001 (ip), vehicle: saline.
Where [6] appears, read: dose: 100.0 mg/kg/injection, schedule: Q01DX001 (ip), vehicle: saline.
The mark [7] stands for this setting: dose: 200.0 mg/kg/injection, schedule: Q01DX001 (ip), vehicle: saline.
[8] abbreviates: dose: 400.0 mg/kg/injection, schedule: Q01DX001 (ip), vehicle: saline.
[9] abbreviates: dose: 100.0 mg/kg/injection, schedule: Q01DX009 (ip), vehicle: saline with Tween-80.
Where [10] appears, read: dose: 200.0 mg/kg/injection, schedule: Q01DX009 (ip), vehicle: saline with Tween-80.
[11] abbreviates: dose: 100.0 mg/kg/injection, schedule: Q01DX001 (ip), vehicle: carboxymethylcellulose (CMC).
Setting [12] is: dose: 200.0 mg/kg/injection, schedule: Q01DX001 (ip), vehicle: carboxymethylcellulose (CMC).
Setting [13] is: dose: 400.0 mg/kg/injection, schedule: Q01DX001 (ip), vehicle: carboxymethylcellulose (CMC).
Where [14] appears, read: dose: 50.0 mg/kg/injection, schedule: Q01DX009 (ip), vehicle: saline with Tween-80.
The mark [15] stands for this setting: dose: 100.0 mg/kg/injection, schedule: Q04DX002 (ip), vehicle: saline with Tween-80.
Where [16] appears, read: dose: 200.0 mg/kg/injection, schedule: Q04DX002 (ip), vehicle: saline with Tween-80.
Where [17] appears, read: dose: 400.0 mg/kg/injection, schedule: Q04DX002 (ip), vehicle: saline with Tween-80.

The record followed here is PubChem BioAssay AID248 (DTP/NCI, 2004).

Values joined by “and” are separate entries in the source; they are usually repeats but may differ in a detail not shown here. Identical values can stand only once. Inconclusive results and toxic doses are left out.

`Cc1ccc(S(=O)(=O)NN=C(C2=CCCCC2)C2=CCCCC2)cc1`: the T/C (dose: 100.0 mg/kg/injection, schedule: Q04DX003 (ip), vehicle: saline) was 94 % of control; the T/C (dose: 200.0 mg/kg/injection, schedule: Q04DX003 (ip), vehicle: saline) is 93 % of control; the T/C (dose: 400.0 mg/kg/injection, schedule: Q04DX003 (ip), vehicle: saline) is 93 % of control.
In the case of `O=C(Nc1ccc(S(=O)(=O)F)cc1)OCc1ccc([N+](=O)[O-])cc1`, the T/C under setting [1] is 105 % of control, the T/C under setting [2] is 95 % of control and the T/C under setting [3] is 100 % of control.
In the case of `O=C1C=CC(=O)N1CCCN1C(=O)C=CC1=O`, the T/C runs as follows: (dose: 2.2 mg/kg/injection, schedule: Q01DX Z (ip), vehicle: methylcellulose (MC)) 94 % of control; (dose: 3.3 mg/kg/injection, schedule: Q01DX Z (ip), vehicle: methylcellulose (MC)) 88 % of control; (dose: 5.0 mg/kg/injection, schedule: Q01DX Z (ip), vehicle: methylcellulose (MC)) 96 % of control.
`CC1(C)OCC(C(OC(=O)c2ccccc2)C(OC2CCCCO2)C2COC(C)(C)O2)O1` (stereo not given): the T/C is 94 % of control under setting [4]; 96 % of control (dose: 200.0 mg/kg/injection, schedule: Q04DX003 (ip), vehicle: Klucel (hydroxypropylcellulose) (HPC)); 94 % of control (dose: 400.0 mg/kg/injection, schedule: Q04DX003 (ip), vehicle: Klucel (hydroxypropylcellulose) (HPC)).
Consider `COc1ccc2cc(C(C)=O)ccc2c1`, for which the T/C by setting is: under setting [5], 117 % of control; under setting [6], 105 % of control; under setting [7], 100 % of control; under setting [8], 110 % of control.
As to `O=C(O)CSc1ccc(NC(=O)NC2CCCCC2)cc1`, the T/C reads like this: under setting [9], 96 % of control; (dose: 100.0 mg/kg/injection, schedule: Q04DX003 (ip), vehicle: saline sonified) 114 % of control; under setting [10], 91 % of control; (dose: 200.0 mg/kg/injection, schedule: Q04DX003 (ip), vehicle: saline sonified) 89 % of control; (dose: 400.0 mg/kg/injection, schedule: Q01DX009 (ip), vehicle: saline with Tween-80) 88 % of control; (dose: 400.0 mg/kg/injection, schedule: Q04DX003 (ip), vehicle: saline sonified) 96 % of control.
For the compound `CN=C1C2CCC(C2)CC1(O)c1ccccc1` (stereo not given), the T/C is, setting by setting: under setting [5], 102 % of control; under setting [6], 102 % of control.
As for `CCC(=O)OCC1OC(n2cnc3c(=S)nc(N)[nH]c32)C(OC(=O)CC)C1OC(=O)CC` (stereo not given), the T/C (dose: 0.8 mg/kg/injection, schedule: Q01DX Z (ip), vehicle: carboxymethylcellulose (CMC)) was 106 % of control; the T/C (dose: 1.3 mg/kg/injection, schedule: Q01DX Z (ip), vehicle: carboxymethylcellulose (CMC)) is 110 % of control; the T/C (dose: 2.0 mg/kg/injection, schedule: Q01DX Z (ip), vehicle: carboxymethylcellulose (CMC)) is 120 % of control; the T/C (dose: 8.0 mg/kg/injection, schedule: Q01DX Z (ip), vehicle: carboxymethylcellulose (CMC)) is 169 % of control; the T/C (dose: 12.0 mg/kg/injection, schedule: Q01DX Z (ip), vehicle: carboxymethylcellulose (CMC)) is 151 % of control and 154 % of control; the T/C (dose: 18.0 mg/kg/injection, schedule: Q01DX Z (ip), vehicle: carboxymethylcellulose (CMC)) was 101 % of control. The T/C by setting is: (dose: 27.0 mg/kg/injection, schedule: Q01DX Z (ip), vehicle: carboxymethylcellulose (CMC)) 156 % of control; (dose: 40.0 mg/kg/injection, schedule: Q01DX Z (ip), vehicle: carboxymethylcellulose (CMC)) 151 % of control.
As to `CC(=O)Nc1ccc(S(=O)(=O)Cl)cc1Cl`, the T/C is 96 % of control (dose: 75.0 mg/kg/injection, schedule: Q01DX001 (ip), vehicle: saline); 98 % of control (dose: 150.0 mg/kg/injection, schedule: Q01DX001 (ip), vehicle: saline); 99 % of control (dose: 300.0 mg/kg/injection, schedule: Q01DX001 (ip), vehicle: saline).
With `Nc1nc(N)c(N=Nc2ccc(S(N)(=O)=O)cc2)cc1N=Nc1ccccc1`, the T/C runs as follows: under setting [11], 94 % of control; under setting [12], 94 % of control; under setting [13], 100 % of control.
`CCC(C)(C)C(=O)O`: the T/C under setting [14] is 104 % of control, the T/C under setting [9] was 98 % of control and the T/C under setting [10] was 98 % of control.
As for `CCCC[P+](CCCC)(CCCC)C(C)C`, the T/C was 97 % of control (dose: 12.0 mg/kg/injection, schedule: Q01DX009 (ip), vehicle: saline with Tween-80); 97 % of control (dose: 25.0 mg/kg/injection, schedule: Q01DX009 (ip), vehicle: saline with Tween-80); 101 % of control (dose: 25.0 mg/kg/injection, schedule: Q04DX003 (ip), vehicle: saline with Tween-80); 99 % of control (dose: 50.0 mg/kg/injection, schedule: Q04DX003 (ip), vehicle: saline with Tween-80).
With `OC1CCCCC1c1ccccc1` (stereo not given), the T/C was 87 % of control under setting [14], 87 % of control under setting [9] and 97 % of control under setting [10].
Turning to `CC(C)N=C(NC(C)C)c1ccc(NC(=O)c2ccc(C(=O)Nc3ccc(C(=NC(C)C)NC(C)C)cc3)cc2)cc1`, the T/C (dose: 15.5 mg/kg/injection, schedule: Q01DX Z (ip), vehicle: methylcellulose (MC)) was 103 % of control.
With `O=C(N/N=C/c1ccc2c(c1)OCO2)c1ccc([N+](=O)[O-])cc1`, the T/C reads like this: (dose: 50.0 mg/kg/injection, schedule: Q01DX001 (ip), vehicle: carboxymethylcellulose (CMC)) 97 % of control; under setting [11], 92 % of control; under setting [12], 94 % of control; under setting [13], 92 % of control.
Turning to `NS(=O)(=O)c1ccc(NC(=O)c2ccc(C(=O)Nc3ccc(S(N)(=O)=O)cc3)cc2)cc1`, the T/C by setting is: under setting [6], 100 % of control; under setting [7], 100 % of control; under setting [8], 100 % of control.
Regarding `CC(C)(C)NC(=O)Oc1ccc(-c2ccccc2)cc1Cl`, the T/C reads like this: (dose: 100.0 mg/kg/injection, schedule: Q01DX009 (ip), vehicle: Klucel (hydroxypropylcellulose) (HPC)) 95 % of control; (dose: 200.0 mg/kg/injection, schedule: Q01DX009 (ip), vehicle: Klucel (hydroxypropylcellulose) (HPC)) 100 % of control; (dose: 400.0 mg/kg/injection, schedule: Q01DX009 (ip), vehicle: Klucel (hydroxypropylcellulose) (HPC)) 100 % of control.
In the case of `Nc1ncnc2nc(-c3ccc(SCc4ccccc4)cc3)[nH]c12`, the T/C is 93 % of control and 89 % of control under setting [14]; 91 % of control under setting [1]; 99 % of control and 103 % of control and 104 % of control under setting [9]; 103 % of control under setting [15]; 87 % of control under setting [2]; 96 % of control and 103 % of control and 86 % of control under setting [10]. Also, the T/C was 97 % of control and 100 % of control under setting [16]; 91 % of control under setting [3]; 94 % of control and 100 % of control under setting [17].
As to `CCn1c2ccccc2c2cc3c(cc21)C(C)=NCC3`, the T/C (dose: 25.0 mg/kg/injection, schedule: Q04DX002 (ip), vehicle: Klucel (hydroxypropylcellulose) (HPC)) was 112 % of control; the T/C (dose: 50.0 mg/kg/injection, schedule: Q04DX002 (ip), vehicle: Klucel (hydroxypropylcellulose) (HPC)) was 102 % of control; the T/C (dose: 100.0 mg/kg/injection, schedule: Q04DX002 (ip), vehicle: Klucel (hydroxypropylcellulose) (HPC)) was 102 % of control.
As for `O=C(NCCBr)NC1CC1c1ccccc1` (stereo not given), the T/C is, setting by setting: (dose: 20.0 mg/kg/injection, schedule: Q04DX003 (ip), vehicle: Klucel (hydroxypropylcellulose) (HPC)) 117 % of control; (dose: 40.0 mg/kg/injection, schedule: Q04DX003 (ip), vehicle: Klucel (hydroxypropylcellulose) (HPC)) 101 % of control; (dose: 80.0 mg/kg/injection, schedule: Q04DX003 (ip), vehicle: Klucel (hydroxypropylcellulose) (HPC)) 93 % of control; under setting [4], 118 % of control.
For the compound `O=S(=O)(F)c1cc(Cl)ccc1CBr`, the T/C by setting is: (dose: 25.0 mg/kg/injection, schedule: Q04DX002 (ip), vehicle: saline with Tween-80) 96 % of control; (dose: 50.0 mg/kg/injection, schedule: Q04DX002 (ip), vehicle: saline with Tween-80) 100 % of control; under setting [15], 93 % of control; under setting [16], 104 % of control; under setting [17], 101 % of control.
